Reference: patent US10676485B2, “Macrocyclic MCL-1 inhibitors and methods of use” (AbbVie Inc., priority 2017, dated 2020)
Like-named read-outs stand apart in the source and are kept apart here.

Assays:
[1] = tested on: AMO-1 human multiple myeloma tumor cell line; test: AMO-1 cell viability assay (CellTiter-Glo); format: cell-based; conditions: AMO1, read-out: AMO-1 Viability IC50 (μM), 10% FBS, 24 hours of compound treatment
[2] = tested on: NCI-H929 human multiple myeloma tumor cell line; test: NCI-H929 cell viability assay (CellTiter-Glo); format: cell-based; conditions: NCI-H929, read-out: H929 Viability IC50 (μM), 10% FBS, 24 hours of compound treatment
GST-MCL-1 = GST-MCL-1 (Homo sapiens (Human), UniProt Q07820); test: TR-FRET MCL-1 binding assay (competition with probe F-Bak)
Sequence of GST-MCL-1 (Q07820 whole entry): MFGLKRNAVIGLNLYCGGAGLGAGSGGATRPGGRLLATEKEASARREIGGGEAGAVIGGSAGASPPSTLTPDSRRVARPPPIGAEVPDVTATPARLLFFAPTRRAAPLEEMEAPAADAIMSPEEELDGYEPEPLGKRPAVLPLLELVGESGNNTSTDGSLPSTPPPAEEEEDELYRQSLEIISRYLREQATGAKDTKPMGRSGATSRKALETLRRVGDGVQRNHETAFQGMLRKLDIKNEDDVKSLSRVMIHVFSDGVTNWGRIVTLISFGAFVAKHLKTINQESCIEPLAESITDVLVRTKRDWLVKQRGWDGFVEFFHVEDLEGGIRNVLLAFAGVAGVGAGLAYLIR
Experimental: For the assay, an acoustic dispenser was used to prepare dilution series from 10 mM test compounds in 100% DMSO and directly transfer 160 nL into low volume 384-well assay plates. 8 μL of a protein/probe/antibody mix was then added to each well resulting in final concentrations listed below: Test compound: 11 three-fold dilutions beginning at 25 μM
The samples were then mixed on a shaker for 1 minute and incubated for an additional 2 hours at room temperature. For each assay plate, a probe/antibody and protein/antibody/probe mixture were included as a negative and a positive control, respectively. Fluorescence was measured on the Envision (Perkin Elmer) using a 340/35 nm excitation filter and 520/525 (F-Bak) and 495/510 nm (Tb-labeled anti-his antibody) emission filters. […] The TR-FRET assay can be performed in the presence of varying concentrations of human serum (HS) or fetal bovine serum (FBS). Compounds were tested both without HS and in the presence of 10% HS.

[3] = read-out: MCL-1 Binding Ki (nM, 10% HS), in the presence of 10% HS
[4] = without HS, read-out: MCL-1 Binding Ki

Compound	IC50 [1] [nM]	IC50 [2] [µM]	Ki (GST-MCL-1; [3]) [nM]	Ki (GST-MCL-1; [4]) [nM]
Cc1c(Cl)c2c(Cl)c(C)c1-c1c(-c3ccc(F)cc3)sc3ncnc(c13)O[C@@H](C(=O)O)Cc1cc(ccc1OCc1ccnc([C@H]3CC[C@@H](COC[C@H]4COCCO4)CC3)n1)OC[C@@H](CN1CCN(C)CC1)O2 [Example 50, (7R,16R)-19,23-dichloro-10-({2-[(1S,4s)-4-({[(2S)-1,4-dioxan-2-yl]methoxy}methyl)cyclohexyl]pyrimidin-4-yl}methoxy)-1-(4-fluorophenyl)-20,22-dimethyl-16-[(4-methylpiperazin-1-yl)methyl]-7,8,15,16-tetrahydro-18,21-etheno-13,9-(metheno)-6,14,17-trioxa-2-thia-3,5-diazacyclononadeca[1,2,3-cd]indene-7-carboxylic acid]	0.249	0.000255	0.249	0.022
Cc1c(Cl)c2c(Cl)c(C)c1-c1c(C3CCC3)sc3ncnc(c13)O[C@@H](C(=O)O)Cc1cc(ccc1OCc1ccnc([C@H]3CC[C@H](OC[C@H]4COCCO4)CC3)n1)OC[C@@H](CN1CCN(C)CC1)O2 [Example 52, (7R,16R)-19,23-dichloro-1-cyclobutyl-10-({2-[(1R,4r)-4-{[(2R)-1,4-dioxan-2-yl]methoxy}cyclohexyl]pyrimidin-4-yl}methoxy)-20,22-dimethyl-16-[(4-methylpiperazin-1-yl)methyl]-7,8,15,16-tetrahydro-18,21-etheno-13,9-(metheno)-6,14,17-trioxa-2-thia-3,5-diazacyclononadeca[1,2,3-cd]indene-7-carboxylic acid]	0.448	0.00118	0.72	< 0.01
Cc1c(Cl)c2c(Cl)c(C)c1-c1c(-c3ccc(F)cc3)sc3ncnc(c13)O[C@@H](C(=O)O)Cc1cc(ccc1OCc1ccnc([C@H]3CC[C@](F)(COC[C@@H]4COCCO4)CC3)n1)OC[C@@H](CN1CCN(C)CC1)O2 [Example 28, (7R,16R)-19,23-dichloro-10-({2-[(1R,4s)-4-({[(2S)-1,4-dioxan-2-yl]methoxy}methyl)-4-fluorocyclohexyl]pyrimidin-4-yl}methoxy)-1-(4-fluorophenyl)-20,22-dimethyl-16-[(4-methylpiperazin-1-yl)methyl]-7,8,15,16-tetrahydro-18,21-etheno-13,9-(metheno)-6,14,17-trioxa-2-thia-3,5-diazacyclononadeca[1,2,3-cd]indene-7-carboxylic acid]	0.211	0.000337	0.18	0.017
Cc1c(Cl)c2c(Cl)c(C)c1-c1c(-c3ccc(F)cc3)sc3ncnc(c13)O[C@@H](C(=O)O)Cc1cc(ccc1OCc1ccnc(N3CC(COC[C@H]4COCCO4)C3)n1)OC[C@@H](CN1CCN(C)CC1)O2 [Example 12, (7R,16R)-19,23-dichloro-10-({2-[3-({[(2S)-1,4-dioxan-2-yl]methoxy}methyl)azetidin-1-yl]pyrimidin-4-yl}methoxy)-1-(4-fluorophenyl)-20,22-dimethyl-16-[(4-methylpiperazin-1-yl)methyl]-7,8,15,16-tetrahydro-18,21-etheno-9,13-(metheno)-6,14,17-trioxa-2-thia-3,5-diazacyclononadeca[1,2,3-cd]indene-7-carboxylic acid]	1.04	0.00208	0.61	0.076
COc1ccccc1-c1nccc(COc2ccc3cc2C[C@H](C(=O)O)Oc2ncnc4sc(C[C@@H]5COCCO5)c(c24)-c2c(C)c(Cl)c(c(Cl)c2C)O[C@H](CN2CCN(C)CC2)CO3)n1 [Example 18, (7R,16R)-19,23-dichloro-1-{[(2R)-1,4-dioxan-2-yl]methyl}-10-{[2-(2-methoxyphenyl)pyrimidin-4-yl]methoxy}-20,22-dimethyl-16-[(4-methylpiperazin-1-yl)methyl]-7,8,15,16-tetrahydro-18,21-etheno-13,9-(metheno)-6,14,17-trioxa-2-thia-3,5-diazacyclononadeca[1,2,3-cd]indene-7-carboxylic acid]	6.12	0.00995	0.24	0.111
Cc1c(Cl)c2c(Cl)c(C)c1-c1c(-c3ccc(F)cc3)sc3ncnc(c13)O[C@@H](C(=O)O)Cc1cc(ccc1OCc1ccnc(C3COCCOC3)n1)OC[C@@H](CN1CCN(C)CC1)O2 [Example 30, (7R,16R)-19,23-dichloro-10-{[2-(1,4-dioxepan-6-yl)pyrimidin-4-yl]methoxy}-1-(4-fluorophenyl)-20,22-dimethyl-16-[(4-methylpiperazin-1-yl)methyl]-7,8,15,16-tetrahydro-18,21-etheno-13,9-(metheno)-6,14,17-trioxa-2-thia-3,5-diazacyclononadeca[1,2,3-cd]indene-7-carboxylic acid]	0.285	0.000974	0.16	0.015
Cc1c(Cl)c2c(Cl)c(C)c1-c1c(C3=CCCC3)sc3ncnc(c13)O[C@@H](C(=O)O)Cc1cc(ccc1OCc1ccnc(C3=CC[C@@](F)(COC[C@H]4COCCO4)CC3)n1)OC[C@@H](CN1CCN(C)CC1)O2 [Example 48, (7R,16R)-19,23-dichloro-1-(cyclopent-1-en-1-yl)-10-({2-[(4R)-4-({[(2R)-1,4-dioxan-2-yl]methoxy}methyl)-4-fluorocyclohex-1-en-1-yl]pyrimidin-4-yl}methoxy)-20,22-dimethyl-16-[(4-methylpiperazin-1-yl)methyl]-7,8,15,16-tetrahydro-18,21-etheno-13,9-(metheno)-6,14,17-trioxa-2-thia-3,5-diazacyclononadeca[1,2,3-cd]indene-7-carboxylic acid]	0.641	0.000593	0.648	0.026
Cc1c(Cl)c2c(Cl)c(C)c1-c1c(-c3ccc(F)cc3)sc3ncnc(c13)O[C@@H](C(=O)O)Cc1cc(ccc1OCc1ccnc(-c3cccc(OC[C@H]4COCCO4)c3)n1)OC[C@@H](CN1CCN(C)CC1)O2 [Example 21, (7R,16R)-19,23-dichloro-10-{[2-(3-{[(2R)-1,4-dioxan-2-yl]methoxy}phenyl)pyrimidin-4-yl]methoxy}-1-(4-fluorophenyl)-20,22-dimethyl-16-[(4-methylpiperazin-1-yl)methyl]-7,8,15,16-tetrahydro-18,21-etheno-13,9-(metheno)-6,14,17-trioxa-2-thia-3,5-diazacyclononadeca[1,2,3-cd]indene-7-carboxylic acid]	0.0488	0.000168	1.01	0.011
COc1ccccc1-c1ccc(OC[C@@H]2COCCO2)c(COc2ccc3cc2C[C@H](C(=O)O)Oc2ncnc4sc(-c5ccc(F)cc5)c(c24)-c2c(C)c(Cl)c(c(Cl)c2C)O[C@H](CN2CCN(C)CC2)CO3)n1 [Example 53, (7R,16R)-19,23-dichloro-10-{[3-{[(2S)-1,4-dioxan-2-yl]methoxy}-6-(2-methoxyphenyl)pyridin-2-yl]methoxy}-1-(4-fluorophenyl)-20,22-dimethyl-16-[(4-methylpiperazin-1-yl)methyl]-7,8,15,16-tetrahydro-18,21-etheno-9,13-(metheno)-6,14,17-trioxa-2-thia-3,5-diazacyclononadeca[1,2,3-cd]indene-7-carboxylic acid]	311	> 1	114	13.7
Cc1c(Cl)c2c(Cl)c(C)c1-c1c(-c3ccc(F)cc3)sc3ncnc(c13)O[C@@H](C(=O)O)Cc1cc(ccc1OCc1ccnc([C@H]3CC[C@H](OCC4COCO4)CC3)n1)OC[C@@H](CN1CCN(C)CC1)O2 (stereo partly drawn) [Example 14, (7R,16R)-19,23-dichloro-10-[(2-{(1r,4r)-4-[(1,3-dioxolan-4-yl)methoxy]cyclohexyl}pyrimidin-4-yl)methoxy]-1-(4-fluorophenyl)-20,22-dimethyl-16-[(4-methylpiperazin-1-yl)methyl]-7,8,15,16-tetrahydro-18,21-etheno-13,9-(metheno)-6,14,17-trioxa-2-thia-3,5-diazacyclononadeca[1,2,3-cd]indene-7-carboxylic acid]	0.114	0.000236	0.09	0.006
Cc1c(Cl)c2c(Cl)c(C)c1-c1c(-c3ccc(F)cc3)sc3ncnc(c13)O[C@@H](C(=O)O)Cc1cc(ccc1OCc1ccnc(C3(COC[C@H]4COCCO4)CCC3)n1)OC[C@@H](CN1CCN(C)CC1)O2 [Example 11, (7R,16R)-19,23-dichloro-10-({2-[1-({[(2S)-1,4-dioxan-2-yl]methoxy}methyl)cyclobutyl]pyrimidin-4-yl}methoxy)-1-(4-fluorophenyl)-20,22-dimethyl-16-[(4-methylpiperazin-1-yl)methyl]-7,8,15,16-tetrahydro-18,21-etheno-13,9-(metheno)-6,14,17-trioxa-2-thia-3,5-diazacyclononadeca[1,2,3-cd]indene-7-carboxylic acid]	0.188	0.000545	–	–
